Holding throughout (format): cell-based
One assay has as its system cGAS bound to Histone H3. Nature of the assay: Co-immunoprecipitation of cGAS with Histone H3 in cytosolic fraction. To be noted: HeLa cells, not observed in DMSO treated control, FIG. 18B. On the procedure: Cells were fractionated using Buffer A (10 mM Hepes pH7.4; […] MgCl2, 10 mM NaCl, 0.1% NP-40, Protease and Phosphatase inhibitors) and Buffer C (10 mM Hepes pH7.4; […], 420 mM NaCl, 0.1% NP-40, Protease and Phosphatase inhibitors). Cells were cultured at ˜70% confluency. Cells were then removed in PBS using a cell scraper and transferred to an Eppendorf. Following centrifugation at 1000 rpm at 4° C. for 5 minutes, cell pellets were resuspended in 350 μl Buffer A. Cells were lysed on ice for twenty minutes, following which samples were centrifuged at 12000 rpm for 2 minutes. Supernatants were removed, and spun a further two times at 12000 rpm for 2 minutes. The supernatant (cytoplasmic fraction) was carefully removed and stored at −80° C. until quantification using the BCA Assay (Pierce, Rockford, Ill., USA) according to manufacturer's instructions using a plate reader. The remaining pellet was washed ×1 in Buffer A, then centrifuged at 12000 rpm for 2 minutes. […] Samples were then centrifuged at 12000 rpm for two minutes to remove debris, and supernatant (nuclear fraction) stored at −80° C. until quantification as described above.
Cytoplasmic fractions were prepared as described above. […] Results were then visualized and recorded using Luminata Crescendo Western HRP substrate (Millipore, UK) and an alpha imager.

The test system of a further assay is cytosolic Histone H3. Description: Western blot of Histone H3 in cytosolic fractions. The following applies: HeLa cells; compared to DMSO control treatment; FIG. 19B. An excerpt:
Adherent cells formed whole cell lysates suspended in RIPA buffer containing phosphatase and protease inhibitors (Roche Inhibitor cocktails, Germany). Lysates were then spun to eliminate cell debris. Protein was quantified using the BCA Assay (Pierce, Rockford, Ill., USA) according to manufacturer's instructions using a plate reader. […] Results were then visualized and recorded using Luminata Crescendo Western HRP substrate (Millipore, UK) and an alpha imager.
Cells were fractionated using Buffer A (10 mM Hepes pH7.4; […] MgCl2, 10 mM NaCl, 0.1% NP-40, Protease and Phosphatase inhibitors) and Buffer C (10 mM Hepes pH7.4; […], 420 mM NaCl, 0.1% NP-40, Protease and Phosphatase inhibitors). […] The supernatant (cytoplasmic fraction) was carefully removed and stored at −80° C. until quantification using the BCA Assay (Pierce, Rockford, Ill., USA) according to manufacturer's instructions using a plate reader. […] Samples were then centrifuged at 12000 rpm for two minutes to remove debris, and supernatant (nuclear fraction) stored at −80° C. until quantification as described above.
On the technique in general: A western blot detects proteins with antibodies after separation by electrophoresis.

The subject of assay [1] is cytosolic DNA in HeLa cells. Nature of the assay: PicoGreen fluorescent staining of double-stranded DNA, confocal microscopy. To be noted: IC50 doses, FIG. 19C. An excerpt: We probed cytosolic fractions of DDRD positive cells MDA-436-EV and +BRCA1, and HCC1937-EV and +BRCA1 cells for the presence of Histone H3, and found Histone H3 protein expression was increased in the repair deficient lines (EV) (FIG. 19A, top panel of blots). […] PicoGreen fluorescent staining was used to detect double-stranded DNA (ds-DNA). […] This increase in cytosolic DNA was however not observed in response to treatment with Paclitaxel (HeLa+Paclitaxel IC50) (FIG. 19C).

Consider `N.N.[Cl][Pt][Cl]` [cisplatin], for which, in the assay on cGAS bound to Histone H3, the “binding of cGAS to Histone H3 (co-IP)” value is recorded as “cGAS was again bound to Histone H3”. In addition, in the assay with cytosolic Histone H3, the “Histone H3 protein levels in cytosolic fraction” value is listed as “increased Histone H3 protein levels”. Further, in assay [1], the “cytosolic DNA (PicoGreen, confocal microscopy)” value is “increased cytosolic DNA”.
The like results for `NC(=O)NO` [hydroxyurea, Hydroxyurea] were, in that order, “cGAS was again bound to Histone H3”, “increased Histone H3 protein levels” and “increased cytosolic DNA”.
